From patent US7998970B2, “Use of finasteride, dutasteride and related compounds for the prevention or treatment of neurologically-associated disorders” (ProteoSys AG, priority 2004, dated 2011)
Counter-ions that a name gives are not always drawn.

Experiments:
[1] = system: neurons derived from D3 embryonic stem (ES) cells; assay: Chemical ischemia-induced neuronal death and neuroprotection, cell culture model; type: cell-based, mouse; conditions: for EC50: Mus musculus, Neuron, read-out: EC50 of neuroprotective effect, chemical ischemia; for neuroprotective effect compared between compounds: each 1 μM, FIG. 3
Experimental: (§1) For all experiments, D3 embryonic stem (ES) cells derived from 129/sv mice [Okabe et al., 1996] were cultivated for 12 days, with passages on days 2, 4, 7 and 9 as described previously [Sommer et al., 2004]. Insult conditions: Cells (24-well plates) were pre-incubated with or without 20 nM EPO (neuroprotective agent, positive control) in fresh medium for 24 hours at 37° C. Cells were rinsed once with low K^+ solution (140 mM NaCl, 4.7 mM KCl, 1.2 mM KH2PO4, 2.5 mM CaCl2, 1.2 mM MgSO4, 11 mM glucose, 15 mM Hepes-NaOH, pH 7.35). Cells (either with or without EPO pre-incubation) were incubated for up to 45 min (37° C.) with either low K^+ solution or with glucose-free low K^+ solution supplemented with 1 mM KCN chemical ischemia solution [Kume et al., 2002, Schrattenholz et al., 2005]. This insult relates to ischemic conditions in stroke. In addition similar cellular insults were established using glutamatergic agonists to induce excitotoxicity (Sommer et al., 2004) and respective neuroprotection related to stroke and epilepsy; and β-amyloid induced toxicity (incubation of neurons with 10 μM β-amyloid1-40 for 10 min, resulting in Ca-influx and neuronal death) and respective rescue related to Alzheimer's disease. Vitality control to assess numbers of surviving neurons was performed in all of these cases by a brief stimulation with a low dose of glutamate (10 μM). Afterwards, cells were washed three times with ice cold phosphate buffered saline (PBS), and then proteins were harvested. Suspended cells were pelleted at 500×G, and lysed into 9M urea 4% CHAPS. The cell lysate was desalted with a NAP-10 column (Amersham Biosciences), preequilibrated with the same buffer, and protein content was determined.
Functional tests by calcium imaging were performed essentially as described [Sommer et al., 2004]. Briefly, cells were loaded with 2 μM of fura-2 AM in DMEM for 45 min at 37° C. in the dark. Measurements of relative changes in [Ca^2+] were made on an inverted epifluorescence microscope (Olympus IX70 S1F2) with a Polychrom IV Monochromator (Xe-lamp, USHIO). Excitation wavelengths (λ1, λ2) and the emission wavelength were 340, 380 and 510 nm, respectively. Acquisition and analysis of data after appropriate stimulation were performed by using MetaFluor software (Universal Imaging Corporation). Image resolution was 168×129 pixels (binning 8×8, pixel size 6.8×6.8 μm). Only cells identified as neurons by morphological criteria and occasional immunostaining (not shown) and those whose calcium levels returned to the resting state after the first stimulation were taken into account. Controls included nominal zero calcium (negative) and 5 μM ionomycin (positive), 10 μM glutamate (positive) and depolarisation (55 mM K+) (positive). Pharmacological agents were applied by a multi-valve, single-output focal drug application device (ALA Scientific) with the perfusion system DAD-12. […] During each stimulation event 20 image pairs were acquired.

[2] = system: neurons derived from D3 embryonic stem (ES) cells; assay: Excitotoxic paradigm (100 μM NMDA), neuroprotection in cell culture model; type: cell-based
Experimental: as §1
(§2) Functional tests by calcium imaging were performed essentially as described [Sommer et al., 2004]. Briefly, cells were loaded with 2 μM of fura-2 AM in DMEM for 45 min at 37° C. in the dark. Measurements of relative changes in [Ca^2+] were made on an inverted epifluorescence microscope (Olympus IX70 S1F2) with a Polychrom IV Monochromator (Xe-lamp, USHIO). Excitation wavelengths (λ1, λ2) and the emission wavelength were 340, 380 and 510 nm, respectively. Acquisition and analysis of data after appropriate stimulation were performed by using MetaFluor software (Universal Imaging Corporation). Image resolution was 168×129 pixels (binning 8×8, pixel size 6.8×6.8 μm). Only cells identified as neurons by morphological criteria and occasional immunostaining (not shown) and those whose calcium levels returned to the resting state after the first stimulation were taken into account. Controls included nominal zero calcium (negative) and 5 μM ionomycin (positive), 10 μM glutamate (positive) and depolarisation (55 mM K+) (positive). […]

[3] = system: neurons derived from D3 embryonic stem (ES) cells; assay: β-amyloid-induced neuronal death (10 μM Aβ1-40), rescue in cell culture model; type: cell-based
Experimental: as §1, §2

[4] = system: mitochondrial permeability transition pore (MPTP); assay: Functional test of the MPTP by Rhodamine-123 assay; type: cell-based, mouse; conditions: for inhibition of release of Rhodamine-123 from mitochondria after opening of the MPTP: 0.5, 1, 10, 20 μM, FIG. 6
Experimental: Ant1 is one of the essential components of the MPTP, and thus was tested functionally by a fluorescent assay described by Metzger et al. (Metzger et al. Optical assessment of motoneuron function in a “twenty-four-hour” acute spinal cord slice model from fetal rats. Journal of Neuroscience Methods 141, 2005, 309320). Briefly, cells were incubated with Rhodamine-123 ([…]) at 37° C. for 20 min. Rhodamine-123 was dissolved at 5 mg/ml in ethanol. For measurements of the membrane potential ψ, cells loaded with Rhodamine-123 were excited at 480 nm and emission was monitored at 565 nm. The lipophilic cation Rhodamine-123 accumulates in mitochondria where its fluorescence intensity is quenched at high concentrations (Chen, 1988; Scaduto and Grotyohann, 1999). A depolarizing change of ψ is indicated by an increase in the intensity of fluorescence in response to dequenching of the dye after release from mitochondria (Emaus et al., 1986; Duchen, 1992, 2000). Thus we refer to the relative change in ψ as the percentage change in Rhodamine-123 fluorescence (Schuchmann et al., 2000).

[5] = system: G361 cells; assay: Autophagy-related assay employing WIPI-staining; type: cell-based, human; conditions: 0.25, 0.5, 1.0 or 2.0 μM tested; FIG. 7
Experimental: The presence of autophagy is quantified by a polyclonal hWIPI-1 antiserum, which was generated by immunizing rabbits (Charles River) with two synthetic peptides representing C-terminal regions in hWIPI-1 (363nkendlrpslp373, 407lrgevipehefatgpv422) and used at a dilution of 1:5000 in ECLWestern blotting detections (Amersham), and at 1:250 for indirect immunofluorescent stainings.
For these stainings, cells were fixed in 3.7% paraformaldehyde (15 min, RT) and analysed by confocal microscopy (see below). To visualize endogenous hWIPI-1 in G361 cells consecutive incubations were conducted using C-terminal hWIPI-1 antiserum at 1:250 (30 min, RT) and Alexa 546 or Alexa 488 labelled goat anti-rabbit IgG (Molecular Probes) at 1:500 (30 min, RT) in PBS/0.1% Tween (blocking/permeabilization: PBS/0.1% Tween/1% BSA, 30 min RT; washing: PBS/0.1% Tween). For nuclear staining, TO-PRO-3 (Molecular Probes) was used at 1:1000. Finally, cells were mounted in Vectashield Mounting Medium (Vector Laboratories) and kept in the dark (41C). Confocal laser scanning microscopy was conducted using a LSM510 microscope (Zeiss) and a 63— 1.4 DIC Plan-Apochromat oil-immersion objective. GFP and Alexa 488 were excited at 488 nm with the internal argon-ion laser. Alexa 546 and TO-PRO-3, respectively, were excited at 543 and 633 nm with helium-neon lasers. […]

[6] = system: β-amyloid plaques; assay: In vivo assay of β-amyloid plaque formation in a mouse model of Alzheimer's disease (APPPS mice)
Experimental: A quite aggressive model for Alzheimer's disease is a double transgenic mouse line expressing mutated human amyloid precursor protein (APP) and presinilin-1 (PS). Between months 4 and 5 a maximal additional increase of the plaque load of 35-40% can be expected (exponential fit, FIG. 9).
Dutasteride was administered orally every day after animals became 4 months old, for 30 days at a maximum concentration of 2 mg/day.
Technically, images were recorded from whole brain sections (Olympus Fluorescence microscope AX70, Digital camera Casio QV4000; resolution 2240×1680 Pixel, with constant overall intensity in all images) A software-assisted procedure was then used to quantify overall areas of NT12 stain (anti-β-amyloid stain) (plaque area), and NT12 stain volumes in these areas by defining thresholds and relating them to overall proportions of respective slices (plaque volume).

[7] = biological target: T1, Kv1.5+Kvβ2.1 (Homo sapiens, UniProt Q13303); assay: K+ channel electrophysiology, inside-out patches of transfected Xenopus oocytes; type: cell-based; conditions: 1 μM Finasteride; Xenopus oocytes with Kv1.5 and Kvβ2.1, inside-out patches, FIG. 5
T1 construct: expressed in transfected cells; host or cells: Xenopus oocytes
T1 sequence (Q13303 whole entry): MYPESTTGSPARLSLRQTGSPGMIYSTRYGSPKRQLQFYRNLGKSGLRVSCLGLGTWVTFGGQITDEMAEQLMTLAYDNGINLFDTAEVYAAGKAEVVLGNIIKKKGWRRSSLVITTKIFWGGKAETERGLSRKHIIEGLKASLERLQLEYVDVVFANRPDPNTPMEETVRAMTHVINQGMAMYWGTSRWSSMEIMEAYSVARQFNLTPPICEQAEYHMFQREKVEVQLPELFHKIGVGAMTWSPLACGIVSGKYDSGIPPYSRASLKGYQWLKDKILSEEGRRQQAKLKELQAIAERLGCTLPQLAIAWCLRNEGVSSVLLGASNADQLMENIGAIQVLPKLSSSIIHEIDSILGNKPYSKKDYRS
T1 sequence (P22460 whole entry partner): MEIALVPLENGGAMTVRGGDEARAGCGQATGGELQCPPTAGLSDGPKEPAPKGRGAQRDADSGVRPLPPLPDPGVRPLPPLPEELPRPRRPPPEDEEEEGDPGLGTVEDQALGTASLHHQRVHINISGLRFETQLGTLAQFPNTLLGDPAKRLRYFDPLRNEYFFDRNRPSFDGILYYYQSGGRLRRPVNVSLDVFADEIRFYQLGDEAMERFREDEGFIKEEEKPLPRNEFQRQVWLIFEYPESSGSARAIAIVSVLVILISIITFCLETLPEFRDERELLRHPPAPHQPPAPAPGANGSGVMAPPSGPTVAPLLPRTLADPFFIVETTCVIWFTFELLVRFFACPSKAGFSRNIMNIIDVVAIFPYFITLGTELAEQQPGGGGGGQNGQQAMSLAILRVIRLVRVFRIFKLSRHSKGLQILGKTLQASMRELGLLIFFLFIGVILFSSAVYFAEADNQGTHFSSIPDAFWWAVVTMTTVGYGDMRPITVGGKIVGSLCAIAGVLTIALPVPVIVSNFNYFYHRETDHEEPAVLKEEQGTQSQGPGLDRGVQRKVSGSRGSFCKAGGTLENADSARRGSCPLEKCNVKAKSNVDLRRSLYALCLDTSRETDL
Experimental: Xenopus oocytes were transfected with various subunit combinations of potassium channels, like Kv1.5+Kvβ2.1. Subsequently activation curves using inside-out patches (external: 2 mM K^+, internal: 96 mM K^+) were measured, they represent IV-curves using standard internal buffer solution (HK+), which were recorded in the presence and absence of 1 μM Finasteride. Corresponding plots of G/Gmax versus the membrane potential were used to evaluate related effects.

[8] = oral, 30 days, months 4 to 5, plaque area or plaque volume, order not stated
[9] = Mus musculus, Neuron; read-out: EC50 of neuroprotective effect, excitotoxic paradigm (100 μM NMDA)
[10] = Mus musculus, Neuron; read-out: EC50 of neuroprotective effect, β-amyloid toxicity (10 μM Aβ 1-40)

| SMILES | EC50 [1] | neuroprotective effect compared between compounds [1] | EC50 ([2]; Mus musculus, Neuron, read-out: EC50 of neuroprotective effect, excitotoxic paradigm (100 μM NMDA)) | EC50 ([3]; Mus musculus, Neuron, read-out: EC50 of neuroprotective effect, β-amyloid toxicity (10 μM Aβ 1-40)) | inhibition of release of Rhodamine-123 from mitochondria after opening of the MPTP [4] | inhibition of MPTP-formation and opening during ischemic conditions ([4]; neural derivatives of embryonic stem cells) | enhancement of autophagy in surviving G361 cells [5] | overall reduction of plaque load versus non-treated controls, first value of 'respectively' [6, 8] | overall reduction of plaque load versus non-treated controls, second value of 'respectively' [6, 8] | load of β-amyloid plaques (NT12 stain) in treated versus non-treated group ([6]; oral, daily for 30 days from month 4, max 2 mg/day, cortical slices, FIG. 8) | reduction of the plaque load relative to the increase expected between months 4 and 5 ([6]; related to expected increase of 35-40%) | EC50 [2, 9] | EC50 [3, 10] | protection against neuronal death induced by chemical ischemia ([1]; 100 nM-1 μM present during the ischemic insult, FIG. 2) | surviving rate of neurons after chemical ischemia ([1]; 1 μM, control cells 4.8±3.4%) | concentration at which the neuroprotective effect peaks ([1]; dose response, FIG. 2) | shift of the IV-curve (G/Gmax versus membrane potential) [7] |
| --- | --- | --- | --- | --- | --- | --- | --- | --- | --- | --- | --- | --- | --- | --- | --- | --- | --- |
| C[C@]12C=CC(=O)N[C@@H]1CC[C@@H]1[C@@H]2CC[C@]2(C)[C@@H](C(=O)Nc3cc(C(F)(F)F)ccc3C(F)(F)F)CC[C@@H]12 [Dutasteride, 5α,17β-N-[2,5-bis(trifluoromethyl)phenyl]-3-oxo-4-azaandrost-1-ene-17-carboxamide] | 300 nM | comparable and strongest | 1500 nM | 100 nM | dose-dependent | marked and significant inhibition | dose-dependent effect | 12% | 13% | significantly lower | 30-32.5% |  |  |  |  |  |  |
| CC12CCC3C(CC[C@H]4NC(=O)CCC34C)C1CCC2C(=O)NCCN (stereo partly drawn) [AEOAA, 4α,6α-dimethyl-2-oxo-hexadecahydro-indeno[5,4-f]quinoline-7-carboxylic-(2-amino-ethyl)-amide hydrochloride] | 5000 nM | considerably less active |  |  |  |  |  |  |  |  |  | 5000 nM | 4000 nM |  |  |  |  |
| CC12CCC3C(CC[C@H]4NC(=O)CCC34C)C1CCC2C(=O)O (stereo partly drawn) [COAAA, 4α,6α-di methyl-2-oxo-hexadecahydro-indeno[5,4-f]quinoline-7-carboxylic-acid] | 1000 nM | nearly as efficacious |  |  |  |  |  |  |  |  |  | 5000 nM | 2000 nM |  |  |  |  |
| CC(C)(C)NC(=O)[C@H]1CC[C@H]2[C@@H]3CC[C@H]4NC(=O)C=C[C@]4(C)[C@H]3CC[C@]12C [Finasteride, 17β-(N-tert-butylcarbamoyl)-4-aza-5α-androst-1-en-3-one] | 300 nM | comparable and strongest |  |  | dose-dependent |  | dose-dependent effect |  |  |  |  | 2000 nM | 100 nM | substantial protection | 72.1±4.4% | about 1 μM | small shift of the IV-curve towards more negative potential |
